Experiments:
[1] = Release rate in different dissolution media (artificial gastric fluid, water, artificial intestinal fluid); format: physicochemical; details: degradation reaction
Procedure: In order to verify whether acidic, basic solvent media would influence the release rate of the sustained-release pellets of the present invention, 0.1 mol/L HCl (pH1.2) was prepared as artificial gastric fluid, […] phosphate buffer (pH6.8) was prepared as artificial intestinal fluid, and these media and water (500 ml) were used as release media, rotation speed was 100 rpm, 37° C. Samples (5 ml, supplemented with equivalent volume of media at the meantime) were taken at 1, 2, 4, 8, 12, 16, 20, 24 h, filtrated, and the subsequent filtrates were used as test solutions. High performance liquid chromatography (Appendix V D of Part II of Chinese Pharmacopoeia, 2010 Edition) was used, octylsilane-bonded silica gel was used as packing agent, 50% methanol was mobile phase, differential refractive detector was used, flow rate was 1.5 ml per minute. 200 μl of test solution was taken, injected in liquid chromatograph, the peak area of topiramate as main drug was recorded; topiramate was separately taken as control sample and measured by the same method, and accumulative release percentages of drug at different time points were calculated by external standard method.

[2] = cited from earlier work
[3] = cited from earlier work; remark: listed apart in the source
human plasma protein = details: plasma concentration range of 0.5-250 μg/ml; decreases with the increase of plasma concentration; cited from earlier work

**Q.** Which “Stability of topiramate in pH1.2 artificial gastric fluid” value [1] does the source give for `CC1(C)O[C@@H]2[C@@H](CO[C@@]3(COS(N)(=O)=O)OC(C)(C)O[C@@H]23)O1` [Topiramate, 2,3,4,5-bis-O-(1-methylethylene)-β-D-fructopyranose sulfamate] here?
**A.** unstable

**Q.** And the “Solubility in organic solvents” value ([2]; acetone, chloroform, dimethylsulfoxide and ethanol)?
**A.** freely soluble

**Q.** What about the “Solubility in alkaline solution” value ([2]; alkaline solution having pH of 9-10 such as sodium hydroxide or sodium phosphate solutions) of the same compound?
**A.** very freely soluble

**Q.** And the “pH value of saturated solution” value ([2]; saturated solution)?
**A.** 6.3

**Q.** And the Solubility in water ([2]; water, room temperature)?
**A.** about 9.8 mg/mL

**Q.** What about the “Solubility in water (descriptive)” value ([2]; water, room temperature) of the same compound?
**A.** very slightly soluble

**Q.** What about the Plasma half-life ([3]; human, in vivo) of the same compound?
**A.** 19 to 25 h

**Q.** And the “Clearance for oral administration” value ([3]; oral administration)?
**A.** 22 to 36 mL/min

**Q.** What about the “Human plasma protein binding ratio” value (human plasma protein) of the same compound?
**A.** 15-41%
